In patent USRE44704E1, “Compositions and methods for treating cancer using immunoconjugates and chemotherapeutic agents” (Immunogen Inc., priority 1999, dated 2014):
Where two headings read alike, the source gives them in different places.

Key:
[1] = tested on: human colon cancer HT-29 cells; experiment: Anti-tumor effect of C242-DM1, CPT-11 and their combination in established subcutaneous HT-29 xenograft model (Example 7, FIG. 10); format: in vivo; details: HT-29 s.c. xenografts, SCID mice, tumors about 80 mm^3 at start; CPT-11 50 mg/kg×2 q3d i.v.; C242-DM1 DM1 dose 75 μg/kg×5 qd i.v.
Experimental: (§1) A control group of animals received phosphate-buffered saline (PBS) using the same schedule as the animals in group 2. Tumor growth was monitored by measuring tumor size twice per week. Tumor size was calculated using the formula: length×width×height×½.

[2] = tested on: human small cell lung cancer SW-2 cells; experiment: Anti-tumor effect of huN901-DM1, topotecan and their combination in established subcutaneous SW-2 xenograft model (Example 5, FIG. 8); format: in vivo; details: SCID mice
Experimental: FIG. 8 is a graph comparing the anti-tumor activity of (i) a control, (ii) huN901-DM1, (iii) topotecan, and (iv) the combination of huN901-DM1 and topotecan, against small cell lung cancer xenografts in SCID mice.
The anti-tumor effect of a combination of a low dose of huN901-DM1 and topotecan (available as HYCAMTIN® from SmithKline Beecham Pharmaceuticals), one of the approved drugs for the treatment of small cell lung cancer (SCLC) in humans, was evaluated in an established subcutaneous xenograft model of SCLC. SCID mice (24 animals) were inoculated with human small cell lung cancer SW-2 cells (8×10^6 cells/animal) injected subcutaneously into the right flank of the mice. When the tumors reached about 80 mm^3 in size, the mice were randomly divided into four groups (6 animals per group). The first group of mice was treated with topotecan (1.4 mg/kg×5, qd) administered i.v. A second group of animals was treated with huN901-DM1 (DM1 dose of 100 μg/kg×5, qd) administered i.v. The third group of mice received a combination of topotecan and huN901-DM1, using the same doses and schedules as in groups 1 and 2. A control group of animals received phosphate-buffered saline (PBS) using the same schedule as the animals in group 2. Tumor growth was monitored by measuring tumor size twice per week. Tumor size was calculated using the formula: length×width×height×½.

[3] = tested on: human small cell lung cancer SW-2 cells; experiment: Anti-tumor effect of huN901-DM1, docetaxel and their combination in established subcutaneous SW-2 xenograft model (Example 4, FIG. 7); format: in vivo; details: SW-2 s.c. xenografts, SCID mice, tumors about 100 mm^3 at start; docetaxel 5 mg/kg×5 q2d i.v.; huN901-DM1 DM1 dose 75 μg/kg×5 qd i.v.
Experimental: Tumor size was calculated with the formula: length×width×height×½.
In 3 out of 6 animals in this treatment group, the tumor was eradicated—resulting in cures lasting greater than 200 days. In the remaining 3 animals in this group, there was a tumor growth delay of 52 days, which is 24 days longer than the calculated additive effect.

[4] = tested on: NCI N417 cells (small cell lung cancer xenografts); format: in vivo; details: NCI N417 s.c. xenografts, SCID mice, tumors approx. 100 mm^3 at start; huN901-DM1 DM1 dose 75 μg/kg/d×5 i.v.; paclitaxel 10 mg/kg/d×5 i.p.
Experimental: In this experiment, a low, non-curative dose of huN901-DM1 was used with an optimal does of paclitaxel (Sigma Chemical Co., St. Louis, Mo.). SCID mice (7 animals per group) were inoculated subcutaneously with NCI N417 cells (8×10^6 cells/animal). After the tumors were well-established (average tumor size was approximately 100 mm^3), one group of animals was treated with huN901-DM1 at a DM1 dose of 75 μg/kg/d×5, administered i.v. everyday. A second group of animals was treated with paclitaxel at a dose of 10 mg/kg/d×5, administered by i.p. everyday. […] A fourth, control group of animals was left untreated. Tumor size was measured as described by Liu et al, Proc. Natl. Acad. Sci., 93:8618-8623 (1996). Animals were also monitored for weight loss as an indicator of signs of toxicity.
In the control group of animals, the tumors grew rapidly to a size of about 900 mm^3 by Day 28 post-tumor inoculation. In animals treated with either huN901-DM1 or paclitaxel, there was a modest anti-tumor effect with a tumor growth delay of 4 days in each case.

[5] = tested on: human lung adenocarcinoma NCI-H441 cells; details: NCI-H441 s.c. xenografts, SCID mice, tumors about 125 mm^3 at start; paclitaxel 15 mg/kg×5 q2d i.p.
Experimental: as §1

[6] = tested on: NCI N417 cells (small cell lung cancer xenografts); experiment: Anti-tumor activity of huN901-DM1, cisplatin plus etoposide, and the triple combination against established NCI N417 xenografts (Example 3, FIG. 6); format: in vivo; details: NCI N417 s.c. xenografts, SCID mice; huN901-DM1 DM1 dose 75 μg/kg/d×5 i.v.; cisplatin 2 mg/kg/d×3 i.v. every other day; etoposide 8 mg/kg/d×3 every other day
Experimental: In this experiment, a low, non-curative dose of huN901-DM1 was used with an optimal dose of cisplatin (Sigma Chemical Co., St. Louis, Mo.) and etoposide (Sigma Chemical Co., St. Louis, Mo.). SCID mice (7 animals per group) were inoculated subcutaneously with NCI N417 cells (8×10^6 cells/animal). After the tumors were well-established (average tumor size was approximately 100 mm^3), one group of animals was treated with huN901-DM1 at a DM1 dose of 75 μg/kg/d×5, administered i.v. everyday. A second group of animals was treated with cisplatin (at a dose of 2 mg/kg/d×3, administered by i.v. ever other day) and etoposide (at a dose of 8 mg/kg/d×3, administered every other day). A third group of animals was treated with huN901-DM1, cisplatin and etoposide using the same dose and schedule used for a the individual agents. A fourth, control group of animals was left untreated. Tumor size was measured as described by Liu et al, Proc. Natl. Acad. Sci., 93:8618-8623 (1996). Animals were also monitored for weight loss as an indicator of signs of toxicity.
In the control group of animals, the tumors grew rapidly to a size of about 900 mm^3 by Day 28 post-tumor inoculation. In animals treated with either huN901-DM1 or cisplatin and etoposide, there was a modest anti-tumor effect with a tumor growth delay of 4 days in each case.

CCc1c2c(nc3ccc(OC(=O)N4CCC(N5CCCCC5)CC4)cc13)-c1cc3c(c(=O)n1C2)COC(=O)[C@]3(O)CC [CPT-11, irinotecan]
tumor growth delay [1]: 6 days

CC[C@@]1(O)C(=O)OCc2c1cc1n(c2=O)Cc2cc3c(CN(C)C)c(O)ccc3nc2-1 [topotecan]
tumor growth delay ([2]; SW-2 s.c. xenografts, tumors about 80 mm^3 at start, topotecan 1.4 mg/kg×5 qd i.v.): 12 days

CC(=O)O[C@@]12CO[C@@H]1C[C@H](O)[C@@]1(C)C(=O)[C@H](O)C3=C(C)[C@@H](OC(=O)[C@H](O)[C@@H](NC(=O)OC(C)(C)C)c4ccccc4)C[C@@](O)([C@@H](OC(=O)c4ccccc4)[C@H]21)C3(C)C [docetaxel]
tumor growth delay [3]: 8 days

CC(=O)O[C@H]1C(=O)[C@@]2(C)[C@H]([C@H](OC(=O)c3ccccc3)[C@]3(O)C[C@H](OC(=O)[C@H](O)[C@@H](NC(=O)c4ccccc4)c4ccccc4)C(C)=C1C3(C)C)[C@]1(OC(C)=O)CO[C@@H]1C[C@@H]2O [paclitaxel]
tumor growth delay [4]: 4 days | tumor growth delay [5]: 4 days

B1: huN901-DM1: maytansinoid DM1 conjugated via SPP disulfide link to humanized monoclonal antibody N901 (binds CD56); 3.9 DM1 molecules per antibody (conjugate, chains of the INN, looked up)
VH: QVQLVESGGGVVQPGRSLRLSCAASGFTFSSFGMHWVRQAPGKGLEWVAYISSGSFTIYYADSVKGRFTISRDNSKNTLYLQMNSLRAEDTAVYYCARMRKGYAMDYWGQGTLVTVSS
VL: DVVMTQSPLSLPVTLGQPASISCRSSQIIIHSDGNTYLEWFQQRPGQSPRRLIYKVSNRFSGVPDRFSGSGSGTDFTLKISRVEAEDVGVYYCFQGSHVPHTFGQGTKVEIK
modifications: DM1 via SPP disulfide linker
notes: 3.9 DM1 molecules per antibody
tumor growth delay [4]: 4 days | tumor growth delay [6]: 4 days | tumor growth delay [3]: 20 days | animals with complete tumor regression ([2]; SW-2 xenografts, 6 animals per group, topotecan 1.4 mg/kg×5 qd i.v., huN901-DM1 100 μg/kg×5 qd i.v.): 3 animals | tumor-growth delay in 3 out of 6 animals ([2]; SW-2 xenografts, huN901-DM1 DM1 dose 100 μg/kg×5 qd i.v., the 3 animals without complete regression): 34 days
